Test [1] deals with A. baumannii CDC-0036. The experiment in a line: microbe, parasite or virus in culture. Particulars: Acinetobacter baumannii, CDC0036, read-out: MIC, A. baumannii CDC-0036. Format: cell-based.
The subject of test [2] is P. aeruginosa CDC-0054. The experiment in a line: microbe, parasite or virus in culture. To be noted: Pseudomonas aeruginosa, CDC0054, read-out: Minimum inhibitory concentration, P. aeruginosa CDC-0054. It counts as cell-based.
In test [3] the target is A. baumannii PBP2 (Acinetobacter baumannii, UniProt D0C8Z9). Kind of test: Bocillin-FL competition binding via gel filtration, A. baumannii PBP2. The method, boiled down:
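Enzyme pre-incubated with increasing inhibitor concentrations, then Bocillin-FL added for 15 min further incubation. Bocillin-FL-bound PBP separated by gel filtration and fluorescence read. EC50 from fitting fraction PBP bound vs inhibitor concentration to a Hill-type equation (ymin, ymax, n).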

Converted amounts (≈) assume the structure as drawn.

Chain of A. baumannii PBP2 (D0C8Z9 whole entry): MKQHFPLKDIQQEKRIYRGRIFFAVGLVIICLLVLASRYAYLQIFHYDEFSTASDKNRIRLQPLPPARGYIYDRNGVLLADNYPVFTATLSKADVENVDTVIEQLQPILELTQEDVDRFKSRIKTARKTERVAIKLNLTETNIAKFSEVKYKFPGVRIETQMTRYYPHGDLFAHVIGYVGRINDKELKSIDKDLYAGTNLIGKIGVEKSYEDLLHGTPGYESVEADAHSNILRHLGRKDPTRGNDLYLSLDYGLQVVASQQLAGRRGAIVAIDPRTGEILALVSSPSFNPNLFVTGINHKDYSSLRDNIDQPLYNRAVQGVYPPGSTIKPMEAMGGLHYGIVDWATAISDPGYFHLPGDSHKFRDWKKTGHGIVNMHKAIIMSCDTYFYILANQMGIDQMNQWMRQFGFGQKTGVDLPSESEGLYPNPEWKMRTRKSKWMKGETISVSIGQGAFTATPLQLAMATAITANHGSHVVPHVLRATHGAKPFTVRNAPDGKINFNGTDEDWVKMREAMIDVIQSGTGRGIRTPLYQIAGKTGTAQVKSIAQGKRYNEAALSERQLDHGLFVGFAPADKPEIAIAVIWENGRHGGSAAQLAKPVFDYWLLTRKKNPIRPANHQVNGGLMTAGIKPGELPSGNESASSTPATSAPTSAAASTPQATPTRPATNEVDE

What is called EC50 is the concentration that produces a half-maximal response. With `O=C(O)c1c(F)ccc2c1OB(O)[C@@H](NC(=O)[C@H](NC(=O)N1CCN(Cc3ccc(O)c(O)c3Cl)C(=O)C1=O)c1ccc(P(=O)(O)O)cc1)C2` (single isomer, unassigned) [Example 160], the MIC in test [1] and in test [2] was less than 1 µg/mL throughout. The EC50 in test [3] is less than 10 µM.
In the case of `O=C(O)c1c(F)ccc2c1OB(O)[C@@H](NC(=O)[C@H](NC(=O)N1CCN(Cc3ccc(O)c(O)c3Cl)C(=O)C1=O)c1cccc(P(=O)(O)O)c1)C2` (single isomer, unassigned) [Example 163], the MIC in test [1] and in test [2] was less than 1 µg/mL in each case. The molecule also had an EC50 in test [3] of 10 to 50 µM.
Consider `O=C(NCCS(=O)(=O)N1CCN(C(=O)N[C@@H](C(=O)N[C@H]2Cc3ccc(F)c(C(=O)O)c3OB2O)c2ccc(P(=O)(O)O)cc2)C1=O)c1ccc(O)c(O)c1Cl` (single isomer, unassigned) [Example 168], for which the MIC in test [1] was in the range of 2 to 4 µg/mL (≈ 2.42 to 4.83 µM); in test [2] it was 32 to 64 µg/mL (≈ 38.7 to 77.3 µM). For the same molecule, the EC50 in test [3] is less than 10 µM.
As for `O=C(NCCCS(=O)(=O)N1CCN(C(=O)N[C@H](C(=O)N[C@H]2Cc3ccc(F)c(C(=O)O)c3OB2O)c2ccc(P(=O)(O)O)cc2)C1=O)c1ccc(O)c(O)c1Cl` (single isomer, unassigned) [Example 169], the MIC in test [1] and in test [2] was greater than 128 µg/mL each time. In addition, in test [3], the half-maximal effective concentration (EC50) fell in the range of 50 to 250 µM.
Turning to `O=C(O)c1c(F)ccc2c1OB(O)[C@@H](NC(=O)[C@H](NC(=O)N1CCN(C3CCN(C(=O)Nc4ccc(O)cc4)CC3)C(=O)C1=O)c1cc(F)c(O)c(O)c1Cl)C2` (single isomer, unassigned) [Example 426], the MIC in test [1] was 8 to 16 µg/mL (≈ 9.99 to 20 µM); in test [2] it was less than 1 µg/mL. In test [3], the concentration giving a half-maximal response (EC50) was 10 to 50 µM.
As for `O=C(O)c1c(F)ccc2c1OB(O)[C@@H](NC(=O)[C@H](NC(=O)N1CCN(C3CCN(C(=O)c4cccc(O)c4)CC3)C1=O)c1cc(F)c(O)c(O)c1Cl)C2` (single isomer, unassigned) [Example 430], the MIC in test [1] was 8 to 16 µg/mL (≈ 10.6 to 21.1 µM); in test [2] it was less than 1 µg/mL. In test [3], this molecule returned an EC50 of less than 10 µM.
In the case of `O=C(O)c1c(F)ccc2c1OB(O)[C@@H](NC(=O)[C@H](NC(=O)N1CCN(C3CCN(C(=O)c4cccc(O)c4F)CC3)C1=O)c1cc(F)c(O)c(O)c1Cl)C2` (single isomer, unassigned) [Example 431], the MIC in test [1] and in test [2] was less than 1 µg/mL throughout. Moreover, the EC50 in test [3] was less than 10 µM.
On to `O=C(O)c1c(F)ccc2c1OB(O)[C@@H](NC(=O)[C@H](NC(=O)N1CCN(C3CCN(C(=O)c4cccc(O)c4Cl)CC3)C1=O)c1cc(F)c(O)c(O)c1Cl)C2` (single isomer, unassigned) [Example 432], for which the MIC in test [1] is 2 to 4 µg/mL (≈ 2.52 to 5.05 µM); in test [2], less than 1 µg/mL. Moreover, the EC50 in test [3] is less than 10 µM.
The corresponding values for `O=C(O)c1c(F)ccc2c1OB(O)[C@@H](NC(=O)[C@H](NC(=O)N1CCN(C3CCN(C(=O)c4cc(O)ccc4F)CC3)C1=O)c1cc(F)c(O)c(O)c1Cl)C2` (single isomer, unassigned) [Example 433] are less than 1 µg/mL, less than 1 µg/mL and less than 10 µM.
For `O=C(O)c1c(F)ccc2c1OB(O)[C@@H](NC(=O)[C@H](NC(=O)N1CCN(C3CCN(C(=O)c4cc(O)ccc4Cl)CC3)C1=O)c1cc(F)c(O)c(O)c1Cl)C2` (single isomer, unassigned) [Example 434], the MIC in test [1] and in test [2] was less than 1 µg/mL throughout. The molecule further registered an EC50 in test [3] of less than 10 µM.
Consider `O=C(O)c1c(F)ccc2c1OB(O)[C@@H](NC(=O)[C@H](NC(=O)N1CCN(C3CCN(C(=O)c4ccc(F)c(O)c4)CC3)C1=O)c1cc(F)c(O)c(O)c1Cl)C2` (single isomer, unassigned) [Example 435], for which the MIC in test [1] and in test [2] was less than 1 µg/mL each time. In test [3], the EC50 is less than 10 µM.
Regarding `O=C(O)c1c(F)ccc2c1OB(O)[C@@H](NC(=O)[C@H](NC(=O)N1CCN(C3CCN(C(=O)c4cc(O)cc(F)c4)CC3)C1=O)c1cc(F)c(O)c(O)c1Cl)C2` (single isomer, unassigned) [Example 436], the MIC in test [1] and in test [2] was less than 1 µg/mL each time. For the same molecule, in test [3], the EC50 was less than 10 µM.
In the case of `O=C(O)c1c(F)ccc2c1OB(O)[C@@H](NC(=O)[C@H](NC(=O)N1CCN(C3CCN(C(=O)c4ccc(F)c(O)c4F)CC3)C1=O)c1cc(F)c(O)c(O)c1Cl)C2` (single isomer, unassigned) [Example 437], the MIC in test [1] and in test [2] was less than 1 µg/mL each time. The same molecule returned an EC50 in test [3] of less than 10 µM.
In the case of `O=C(O)c1c(F)ccc2c1OB(O)[C@@H](NC(=O)[C@H](NC(=O)N1CCN(C3CCN(C(=O)c4c(F)ccc(O)c4F)CC3)C1=O)c1cc(F)c(O)c(O)c1Cl)C2` (single isomer, unassigned) [Example 439], the results for the MIC in test [1] and in test [2] were less than 1 µg/mL and 2 to 4 µg/mL (≈ 2.52 to 5.04 µM), respectively. Further, the concentration giving a half-maximal response (EC50) in test [3] was less than 10 µM.
The corresponding values for `O=C(O)c1c(F)ccc2c1OB(O)[C@@H](NC(=O)[C@H](NC(=O)N1CCN(C3CCN(C(=O)c4c(F)ccc(O)c4Cl)CC3)C1=O)c1cc(F)c(O)c(O)c1Cl)C2` (single isomer, unassigned) [Example 440] are less than 1 µg/mL, less than 1 µg/mL and less than 10 µM.
For `O=C(O)c1c(F)ccc2c1OB(O)[C@@H](NC(=O)[C@H](NC(=O)N1CCN(C3CCN(C(=O)c4cc(F)c(F)c(O)c4F)CC3)C1=O)c1cc(F)c(O)c(O)c1Cl)C2` (single isomer, unassigned) [Example 441], the MIC in test [1] and in test [2] was less than 1 µg/mL throughout. Further, the EC50 in test [3] was less than 10 µM.
As for `O=C(O)c1c(F)ccc2c1OB(O)[C@@H](NC(=O)[C@H](NC(=O)N1CCN(C3CCN(C(=O)c4cc(O)cc(O)c4)CC3)C1=O)c1cc(F)c(O)c(O)c1Cl)C2` (single isomer, unassigned) [Example 442], the MIC in test [1] and in test [2] was less than 1 µg/mL in each case. In addition, the EC50 in test [3] was less than 10 µM.
In the case of `O=C(O)c1c(F)ccc2c1OB(O)[C@@H](NC(=O)[C@H](NC(=O)N1CCN(C3CCN(C(=O)c4cc(O)c(F)c(O)c4)CC3)C1=O)c1cc(F)c(O)c(O)c1Cl)C2` (single isomer, unassigned) [Example 443], the MIC in test [1] and in test [2] was less than 1 µg/mL in each case. In addition, the EC50 in test [3] is less than 10 µM.
With `O=C(O)c1c(F)ccc2c1OB(O)[C@@H](NC(=O)[C@H](NC(=O)N1CCN(C3CCN(C(=O)c4cc(O)c(F)c(O)c4F)CC3)C1=O)c1cc(F)c(O)c(O)c1Cl)C2` (single isomer, unassigned) [Example 444], the MIC in test [1] and in test [2] was less than 1 µg/mL throughout. This molecule displayed an EC50 in test [3] of less than 10 µM.
With `O=C(O)c1c(F)ccc2c1OB(O)[C@@H](NC(=O)[C@H](NC(=O)N1CCN(C3CCN(C(=O)Nc4cccc(O)c4F)CC3)C1=O)c1cc(F)c(O)c(O)c1Cl)C2` (single isomer, unassigned) [Example 446], the MIC in test [1] and in test [2] was less than 1 µg/mL each time. The half-maximal effective concentration (EC50) in test [3] is less than 10 µM.
With `O=C(O)c1c(F)ccc2c1OB(O)[C@@H](NC(=O)[C@H](NC(=O)N1CCN(C3CCN(C(=O)Nc4cc(O)ccc4F)CC3)C1=O)c1cc(F)c(O)c(O)c1Cl)C2` (single isomer, unassigned) [Example 451], the MIC in test [1] and in test [2] was less than 1 µg/mL in each case. This molecule gave an EC50 in test [3] of less than 10 µM.
Regarding `O=C(O)c1c(F)ccc2c1OB(O)[C@@H](NC(=O)[C@H](NC(=O)N1CCN(C3CCN(C(=O)Nc4c(F)ccc(O)c4Cl)CC3)C1=O)c1cc(F)c(O)c(O)c1Cl)C2` (single isomer, unassigned) [Example 455], the MIC in test [1] and in test [2] was less than 1 µg/mL in each case. In addition, in test [3], the EC50 is less than 10 µM.
With `O=C(O)c1c(F)ccc2c1OB(O)[C@@H](NC(=O)[C@@H](NC(=O)N1CCN(C3CCN(C(=O)c4ccc(O)cc4)CC3)C1=O)c1cc(F)c(O)c(O)c1Cl)C2` (single isomer, unassigned) [Example 462], the MIC in test [1] is 32 to 64 µg/mL (≈ 42.2 to 84.4 µM); in test [2], 8 to 16 µg/mL (≈ 10.6 to 21.1 µM).
In the case of `O=C(O)c1c(F)ccc2c1OB(O)[C@@H](NC(=O)[C@H](NC(=O)N1CCN(C3CCN(C(=O)c4ccc(O)cc4)CC3)C1=O)c1cc(F)c(O)c(O)c1Cl)C2` (single isomer, unassigned) [Example 463], the MIC in test [1] and in test [2] was less than 1 µg/mL in each case. The EC50 in test [3] was less than 10 µM.
Regarding `O=C(O)c1c(F)ccc2c1OB(O)[C@@H](NC(=O)[C@H](NC(=O)N1CCN(Cc3ccc(O)c(O)c3Cl)C(=O)C1=O)c1ccc(P(=O)(O)O)c(F)c1F)C2` [Example 166, (R)-3-((R)-2-(4-(2-chloro-3,4-dihydroxybenzyl)-2,3-dioxopiperazine-1-carboxamido)-2-(2,3-difluoro-4-phosphonophenyl)acetamido)-7-fluoro-2-hydroxy-3,4-dihydro-2H-benzo[e][1,2]oxaborinine-8-carboxylic acid], the MIC in test [1] and in test [2] was less than 1 µg/mL each time. The same molecule had an EC50 in test [3] of 10 to 50 µM.
Take `O=C(NCCS(=O)(=O)N1CCN(C(=O)N[C@H](C(=O)N[C@H]2Cc3ccc(F)c(C(=O)O)c3OB2O)c2ccc(P(=O)(O)O)cc2)C1=O)c1ccc(O)c(O)c1Cl` [Example 167, (R)-3-((S)-2-(3-((2-(2-chloro-3,4-dihydroxybenzamido)ethyl)sulfonyl)-2-oxoimidazolidine-1-carboxamido)-2-(4-phosphonophenyl)acetamido)-7-fluoro-2-hydroxy-3,4-dihydro-2H-benzo[e][1,2]oxaborinine-8-carboxylic acid]: the MIC in test [1] and in test [2] was greater than 128 µg/mL each time. Besides, in test [3], the concentration giving a half-maximal response (EC50) is 10 to 50 µM.

The values above are taken from US20240270762A1, “PENICILLIN-BINDING PROTEIN INHIBITORS” (priority 2021, published 2024).
